From patent publication US9453226B2, “Protection of cells from Alu-RNA-induced degeneration and inhibitors for protecting cells” (UNIVERSITY OF KENTUCKY RESEARCH FOUNDATION, priority 2011, dated 2016)
Entries after “also recorded” stand apart in the source; their conditions may differ. d = 2'-deoxy (DNA); r = 2'-OH (RNA)

How the values were obtained:
[1] = test system: IRAK1/4 phosphorylation; test: IRAK1/4 phosphorylation in human RPE cells (Western blot); assay type: cell-based; conditions: human RPE cells treated with DICER1 antisense
Description: (§1) Protein abundance was assessed by Western blot analysis using antibodies against Caspase-1 (1:500; Invitrogen), pIRAK1 (1:500; Thermo Scientific), pIRAK4 (1:500, Abbomax), PYCARD (1:200, Santa Cruz Biotechnology), NLRP3 (1:500, Enzo Life Sciences) and Vinculin (1:1,000; Sigma-Aldrich). Caspase-1 activity was visualized using Caspalux1 E1D2 (Oncolmmunin) according to manufacturer's instructions.
(§2) Tissues or cells were homogenized in lysis buffer (10 mM Tris base, pH 7.4, 150 mM NaCl, 1 mM EDTA, 1 mM EGTA, 1% Triton X-100, 0.5% NP-40, protease and phosphatase inhibitor cocktail (Roche)). Protein concentrations were determined using a Bradford assay kit (Bio-Rad) with bovine serum albumin as a standard. Proteins (40-100 μg) were run on NuPAGE Bis-Tris gels (Invitrogen) and transferred to Immun-Blot PVDF membranes (Bio-Rad). Cells were scraped in hot Laemmli buffer (62.5 mM Tris base, pH 6.8, 2% SDS, 5% 2-Mercaptoethanol, 10% Glycerol, 0.01% Bromophenol Blue). Samples were boiled and run on 4-20% NuPAGE Tris-Glycine gels (Invitrogen). The transferred membranes were blocked for 1 h at RT and incubated with antibodies against human Caspase-1 (1:500; Invitrogen), mouse Caspase 1 (1:500; MBL), NLRP3 (1:1000; Enzo Life Sciences), PYCARD (1:1000, RayBiotech), phospho-IRAK1 (S376) (1:500, Thermo Scientific), phospho-IRAK4 (T345) (1:500, AbboMax), DICER1 (1:2,000; Bethyl), MyD88 (1:1,000; Cell Signaling), and mouse IL-18 (1:200; MBL) at 4° C. overnight. Protein loading was assessed by immunoblotting using an anti-Vinculin antibody (1:1,000; Sigma-Aldrich). The secondary antibodies were used (1:5,000) for 1 h at RT. The signal was visualized by enhanced chemiluminescence (ECL plus) and captured by VisionWorksLS Image Acquisition and Analysis software (Version 6.7.2, UVP, LLC).

[2] = molecular target: T1, Caspase-1 (Homo sapiens, UniProt P29466); test: Caspase-1 activation in human RPE cells (Western blot p20, Caspalux substrate cleavage); assay type: cell-based; conditions: compared to control AS
T1 construct: Primary human RPE cells were isolated as previously described; endogenous in cells; host or cells: primary human RPE cells
T1 sequence (P29466 120-297 limits assumed): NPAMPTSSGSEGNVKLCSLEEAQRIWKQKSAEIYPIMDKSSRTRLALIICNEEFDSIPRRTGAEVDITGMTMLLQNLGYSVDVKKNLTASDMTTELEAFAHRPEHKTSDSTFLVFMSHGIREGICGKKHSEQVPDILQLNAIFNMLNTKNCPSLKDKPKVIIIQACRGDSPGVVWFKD
T1 sequence (P29466 317-404 limits assumed): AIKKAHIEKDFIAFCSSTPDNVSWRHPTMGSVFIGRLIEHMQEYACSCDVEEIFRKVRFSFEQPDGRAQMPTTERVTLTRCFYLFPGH
Description: as §1, §2
Caspase-1 activity. Caspase-1 activity was visualized by incubating cells with Caspalux1E1D2 reagent (Oncolmmunin) according to the manufacturer's instructions. Caspalux1E1D2 signal was quantified reading the fluorescence (excitation 552 nm, emission 580 nm) using a Synergy 4 reader (Biotek). Quantification of fluorescence from images was performed by converting images into grayscale in Adobe Photoshop CSS, and measuring the integrated density of black and white images using ImageJ software (NIH) (Bogdanovich et al., 2008).

[3] = test system: DICER1; test: DICER1 abundance after antisense treatment of human RPE cells; assay type: cell-based
Description: as §2

[4] = test system: human RPE cells; conditions: human RPE cells transfected with pAlu
Description: All cell cultures were maintained at 37° C. and 5% CO2. Primary mouse RPE cells were isolated as previously described (Yang et al., 2009) and grown in Dulbecco Modified Eagle Medium (DMEM) supplemented with 20% FBS and standard antibiotics concentrations. Primary human RPE cells were isolated as previously described (Yang et al., 2008) and maintained in DMEM supplemented with 10% FBS and antibiotics. HeLa cells were maintained in DMEM supplemented with 20% FBS and standard antibiotics concentrations. THP-1 cells were cultured in RPMI 1640 medium supplemented with 10% FBS and antibiotics.
MTS assays were performed using the CellTiter 96 AQueous One Solution Cell Proliferation Assay (Promega) according to the manufacturer's instructions. For examining the cytoprotective effect of glycine in Alu RNA induced cell death, human RPE cells were transfected with pNull/pAlu. At 6 h post-transfection the cells were incubated with complete media containing glycine (5 mM) or vehicle, and cell viability was assessed after 24 h. Similarly, human RPE cells primed with LPS (5 μg/ml for 6 h) were treated with ATP (25 μM) in the presence of glycine containing media (5 mM). 30 min post ATP cell viability was assessed as described above.
MTS assays were performed using the CellTiter 96 AQueous One Solution Cell Proliferation Assay (Promega) according to the manufacturer's instructions.

[5] = test system: PYCARD; test: PYCARD knockdown in human RPE cells; assay type: cell-based; conditions: compared to control siRNAs
Description: as §2

[6] = test system: NLRP3 and IL18 mRNAs; test: NLRP3 and IL18 mRNA in human RPE cells (real-time RT-PCR); assay type: cell-based
From the text: Transcript abundance was quantified by real-time RT-PCR using an Applied Biosystems 7900 HT Fast Real-Time PCR system by the 2^−ΔΔCt method.
(§3) Total RNA was extracted from tissues or cells using Trizol reagent (Invitrogen) according to manufacturer's recommendations, DNase treated and reverse transcribed (QuantiTect, Qiagen). The RT products (cDNA) were amplified by real-time quantitative PCR (Applied Biosystems 7900 HT Fast Real-Time PCR system) with Power SYBR green Master Mix. Oligonucleotide primers specific for human IL1B (forward 5′-[…]-3′ and reverse 5′-[…]-3′), human IL18 (forward 5′-[…]-3′ and reverse 5′-[…]-3′), human NLRP3 (forward 5′-[…]-3′ and reverse 5′-[…]-3′), human PYCARD (forward 5′-[…]-3′ and reverse 5′-[…]-3′), human VDAC1 (forward 5′-[…]-3′ and reverse 5′-[…]-3′), human VDAC2 (forward 5′-[…]-3′ and reverse 5′-[…]-3′), human VDAC3 (forward 5′-[…]-3′ and reverse 5′-[…]-3′), human 18S rRNA (forward 5′-[…]-3′ and reverse 5′-[…]-3′), mouse Myd88 (forward 5′-[…]-3′ and reverse 5′-[…]-3′), mouse Nlrp3 (forward 5′-[…]-3′ and reverse 5′-[…]-3′), mouse Il18 (forward 5′-[…]-3′ and reverse 5′-[…]-3′), and mouse 18S rRNA (forward 5′-[…]-3′ and reverse 5′-[…]-3′) were used. The QPCR cycling conditions were 50° C. for 2 min, 95° C. for 10 min followed by 40 cycles of a two-step amplification program (95° C. for 15 s and 58° C. for 1 min). At the end of the amplification, melting curve analysis was applied using the dissociation protocol from the Sequence Detection system to exclude contamination with unspecific PCR products. […] For negative controls, no RT products were used as templates in the QPCR and verified by the absence of gel-detected bands. Relative expressions of target genes were determined by the 2^−ΔΔCt method.

[7] = test system: mitochondrial ROS; test: Mitochondrial ROS in human RPE cells (MitoSOX Red); assay type: cell-based
Description: Cellular ROS production was assessed using the ROS-specific probe 2′7′-dichlorodihydrofluorescin diacetate (H2DCFDA, BioChemica, Fluka). Mitochondrial ROS production was assessed using MitoSOX™ Red (Invitrogen). Sub-confluent human RPE cells were transfected with pNull or pAlu. After 24 h cells were loaded for 10 min at 37° C. with 10 μM H2DCFDA or MitoSOX™ Red (Invitrogen) mitochondrial superoxide indicator for live-cell imaging and washed twice with PBS. For H2DCFDA, fluorescence was recorded in 96-well plate using with a Synergy 4 reader (Biotek) using a FITC filter (excitation 485 nm, emission 538 nm). To visualize respiring mitochondria for colocalization with the mitochondrial ROS signal, after PBS wash cells were incubated with MitoTracker Deep Red™ (Invitrogen) for 30 min at 37° C. and then washed twice with PBS. The fluorescent signals were detected using Leica SP-5 or Zeiss Axio Observer Z1 microscopes. Phagosomal ROS production was assessed using the Fc-OXYBURST Green™ assay (Invitrogen). Sub-confluent human RPE cells were transfected with pNull or pAlu, or treated with PMA (0.5 μg/ml; Sigma-Aldrich). […] The total fluorescence from the cells was measured immediately after adding Fc-OXYBURST Green™ with a Synergy 4 reader (Biotek) using FITC filter (excitation 485 nm, emission 538 nm).

[8] = test system: VDAC2; test: VDAC2 mRNA knockdown in human RPE cells; assay type: cell-based; conditions: compared to control (Luc) siRNA
From the text: as §3, with “used.” for “used. The QPCR cycling conditions were 50° C. for 2 min, 95° C. for 10 min followed by 40 cycles of a two-step amplification program (95° C. for 15 s and 58° C. for 1 min). At the end of the amplification, melting curve analysis was applied using the dissociation protocol from the Sequence Detection system to exclude contamination with unspecific PCR products.”

[9] = test system: VDAC3; test: VDAC3 mRNA knockdown in human RPE cells; assay type: cell-based; conditions: compared to control (Luc) siRNA
From the text: as §3, with “used.” for “used. The QPCR cycling conditions were 50° C. for 2 min, 95° C. for 10 min followed by 40 cycles of a two-step amplification program (95° C. for 15 s and 58° C. for 1 min). At the end of the amplification, melting curve analysis was applied using the dissociation protocol from the Sequence Detection system to exclude contamination with unspecific PCR products.”

[10] = test system: VDAC1; test: VDAC1 mRNA knockdown in human RPE cells; assay type: cell-based; conditions: compared to control (Luc) siRNA
From the text: as §3, with “used.” for “used. The QPCR cycling conditions were 50° C. for 2 min, 95° C. for 10 min followed by 40 cycles of a two-step amplification program (95° C. for 15 s and 58° C. for 1 min). At the end of the amplification, melting curve analysis was applied using the dissociation protocol from the Sequence Detection system to exclude contamination with unspecific PCR products.”

[11] = test system: NLRP3; test: NLRP3 knockdown in HEK293 cells transfected with an NLRP3 expression vector; assay type: cell-based; conditions: compared to control siRNAs
Description: as §2

[12] = test system: RPE; test: Alu RNA-induced RPE degeneration in wild-type mice, inhibitors given intravitreously; assay type: in vivo; conditions: subretinal Alu RNA 1 μg; peptide 2 μg intravitreous

Substance: 5′-GCUGACCTTTTTGCTUCUCA-3′ [DICER1 AS]
- IRAK1 and IRAK4 phosphorylation [1]: increases IRAK1 and IRAK4 phosphorylation
- cleavage activity of Caspase-1 (Caspalux) [2]: increases cleavage activity of Caspase-1
- DICER1 abundance [3]: reduces DICER1

Substance: 5′-GAAGCUCUUCAGUUUCAdTdT-3′ (GAAGCUCUUCAGUUUCATT; siRNA; sugars from the 5' end r17 d2, backbone not given here) [PYCARD siRNA]
- pAlu-induced human RPE cell death / loss of cell viability [4]: rescued
- abundance of PYCARD [5]: reduced

Substance: 5′-CCCUGGAGUUGGAGGCUdTdT-3′ [VDAC2 siRNA]
- pAlu-induced NLRP3 and IL18 mRNA upregulation [6]: prevent; also recorded: impaired
- pAlu-induced mitochondrial ROS generation [7]: prevent; also recorded: impaired
- abundance of VDAC2 mRNA [8]: reduced

Substance: 5′-GCUUUAAUCGAUGGGAAdTdT-3′ [VDAC3 siRNA]
- abundance of VDAC3 mRNA [9]: reduced

Substance: 5′-CGGAAUAGCAGCCAAGUdTdT-3′ [VDAC1 siRNA]
- pAlu-induced NLRP3 and IL18 mRNA upregulation [6]: prevent; also recorded: impaired
- pAlu-induced mitochondrial ROS generation [7]: prevent; also recorded: impaired
- abundance of VDAC1 mRNA [10]: reduced

Substance: 5′-GUUUGACUAUCUGUUCUdTdT-3′ (GUUUGACUAUCUGUUCUTT; siRNA; sugars from the 5' end r17 d2, backbone not given here) [NLRP3 siRNA]
- pAlu-induced human RPE cell death / loss of cell viability [4]: rescued
- abundance of NLRP3 [11]: reduced

Substance: DRQIKIWFQNRRMKWKKRDVLPGTCVWSIASE
- Alu RNA-induced RPE degeneration [12]: blocked
